pIC50: −log10 of the molar value.
Tests used:
FaDu = assay: cells; format: functional, cell-based; details: Homo sapiens;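 note: cell viability readout of growth inhibition in FaDu cells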
Description: SANGER: Inhibition of human FADU cell growth in a cell viability assay.

COLO-680N = assay: cells; format: functional, cell-based; details: Homo sapiens;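 note: cell viability assay used to measure inhibition of COLO-680N cell growth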
Description: SANGER: Inhibition of human COLO-680N cell growth in a cell viability assay.

BFTC-905 = assay: cells; format: functional, cell-based; details: Homo sapiens
Description: SANGER: Inhibition of human BFTC-905 cell growth in a cell viability assay.

HT-1080 = assay: cells; format: functional, cell-based; details: Homo sapiens
Description: SANGER: Inhibition of human HT-1080 cell growth in a cell viability assay.

SCC-9 = assay: cells; format: functional, cell-based; details: Homo sapiens;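 note: Read-out is a cell viability assay, with values giving inhibition of cell growth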
Description: SANGER: Inhibition of human SCC-9 cell growth in a cell viability assay.

OVCAR-5 = assay: cells; format: functional, cell-based; details: Homo sapiens;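 note: growth inhibition of human OVCAR-5 cells, read out with a cell viability assay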
Description: SANGER: Inhibition of human OVCAR-5 cell growth in a cell viability assay.

SK-N-AS = assay: cells; format: functional, cell-based; details: Homo sapiens;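 note: growth inhibition of human SK-N-AS cells, measured with a cell viability assay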
Description: SANGER: Inhibition of human SK-N-AS cell growth in a cell viability assay.

U-251 = assay: cells; format: functional, cell-based; details: Homo sapiens;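 note: growth inhibition of human U-251 cells, read out through a cell viability assay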
Description: SANGER: Inhibition of human U251 cell growth in a cell viability assay.

SCC-4 = assay: cells; format: functional, cell-based; details: Homo sapiens;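 note: growth inhibition of human SCC-4 cells, read out as cell viability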
Description: SANGER: Inhibition of human SCC-4 cell growth in a cell viability assay.

FTC-133 = assay: cells; format: functional, cell-based; details: Homo sapiens
NCI-H1693 = assay: cells; format: functional, cell-based; details: Homo sapiens;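 note: growth inhibition of the human cell line, read out with a cell viability assay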
Description: SANGER: Inhibition of human NCI-H1693 cell growth in a cell viability assay.

CHL-1 = assay: cells; format: functional, cell-based; details: Homo sapiens;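 note: cell growth inhibition, read out with a cell viability assay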
Description: SANGER: Inhibition of human CHL-1 cell growth in a cell viability assay.

KYSE-510 = assay: cells; format: functional, cell-based; details: Homo sapiens;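 note: cell viability readout used to measure how strongly growth of the cell line is suppressed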
Description: SANGER: Inhibition of human KYSE-510 cell growth in a cell viability assay.

HOP-92 = assay: cells; format: functional, cell-based; details: Homo sapiens;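 note: cell viability readout, with IC50 reflecting inhibition of HOP-92 cell growth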
Description: SANGER: Inhibition of human HOP-92 cell growth in a cell viability assay.

SK-MES-1 = assay: cells; format: functional, cell-based; details: Homo sapiens;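 note: growth inhibition of human SK-MES-1 cells, read out with a cell viability assay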
Description: SANGER: Inhibition of human SK-MES-1 cell growth in a cell viability assay.

NCI-H2342 = assay: cells; format: functional, cell-based; details: Homo sapiens;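 note: growth inhibition of the cancer cell line, determined with a cell viability assay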
Description: SANGER: Inhibition of human NCI-H2342 cell growth in a cell viability assay.

NCI-H441 = assay: cells; format: functional, cell-based; details: Homo sapiens;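 note: growth inhibition of NCI-H441 cells, read out with a cell viability assay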
Description: SANGER: Inhibition of human NCI-H441 cell growth in a cell viability assay.

NCI-H1623 = assay: cells; format: functional, cell-based; details: Homo sapiens;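 note: cell viability assay used as the read-out for growth inhibition of NCI-H1623 cells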
Description: SANGER: Inhibition of human NCI-H1623 cell growth in a cell viability assay.

BC1 cell line = assay: SANGER: Inhibition of human BC-1 cell growth in a cell viability assay.; format: functional, cell-based; details: Homo sapiens, BC1
CWR22R = assay: cells; format: functional, cell-based; details: Homo sapiens, 22Rv1;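 note: growth inhibition of 22Rv1 cells, read out with a cell viability assay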
Description: SANGER: Inhibition of human 22RV1 cell growth in a cell viability assay.

HuCCT-1 = assay: cells; format: functional, cell-based, HuCCT1; details: Homo sapiens;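 note: growth inhibition of HuCCT-1 cells, read out by a cell viability assay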
Description: SANGER: Inhibition of human HuCCT1 cell growth in a cell viability assay.

SJRH30 = assay: cells; format: functional, cell-based; details: Homo sapiens;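 note: growth inhibition of human SJRH30 cells, read out with a cell viability assay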
Description: SANGER: Inhibition of human SJRH30 cell growth in a cell viability assay.

SNU-C1 = assay: cells; format: functional, cell-based, Homo sapiens; details: Homo sapiens, SNU-C1;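 note: growth inhibition of SNU-C1 human cells, read out by a cell viability assay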
Description: SANGER: Inhibition of human SNU-C1 cell growth in a cell viability assay.

KMOE-2 = assay: cells; format: functional, cell-based, Homo sapiens; details: Homo sapiens, KMOE-2;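 note: growth inhibition of human KMOE-2 cells, read out with a cell viability assay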
Description: SANGER: Inhibition of human KMOE-2 cell growth in a cell viability assay.

MHH-CALL-2 = assay: cells; format: functional, cell-based, Homo sapiens; details: Homo sapiens, MHH-CALL-2;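 note: growth inhibition of the cell line, read out in a cell viability assay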
Description: SANGER: Inhibition of human MHH-CALL-2 cell growth in a cell viability assay.

NCI-H64 = assay: cells; format: functional, cell-based, Homo sapiens; details: Homo sapiens, NCI-H64;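 note: growth inhibition of NCI-H64 cells, read out with a cell viability assay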
Description: SANGER: Inhibition of human NCI-H64 cell growth in a cell viability assay.

TYK-nu = assay: cells; format: functional, cell-based; details: Homo sapiens;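 note: growth inhibition of human TYK-nu cells, read out by a cell viability assay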
Description: SANGER: Inhibition of human TYK-nu cell growth in a cell viability assay.

DMS-153 = assay: cells; format: functional, cell-based, Homo sapiens; details: Homo sapiens, DMS-153
Description: SANGER: Inhibition of human DMS-153 cell growth in a cell viability assay.

RL = assay: cells; format: functional, cell-based, Homo sapiens; details: Homo sapiens, RL
Description: SANGER: Inhibition of human RL cell growth in a cell viability assay.

YT = assay: cells; format: functional, cell-based, Homo sapiens; details: Homo sapiens, YT
Description: SANGER: Inhibition of human YT cell growth in a cell viability assay.

NB1 = assay: cells; format: functional, cell-based, Homo sapiens; details: Homo sapiens, NB1;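 note: reduction of NB1 cell proliferation, read out with a viability assay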
Description: SANGER: Inhibition of human NB1 cell growth in a cell viability assay.

OPM-2 = assay: cells; format: functional, cell-based, Homo sapiens; details: Homo sapiens, OPM-2;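 note: growth of OPM-2 cells measured with a viability assay, IC50 for suppression of proliferation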
Description: SANGER: Inhibition of human OPM-2 cell growth in a cell viability assay.

MFE-280 = assay: cells; format: functional, cell-based; details: Homo sapiens;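 note: growth inhibition of MFE-280 cells, determined with a cell viability readout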
Description: SANGER: Inhibition of human MFE-280 cell growth in a cell viability assay.

CHP-126 = assay: cells; format: functional, cell-based, Homo sapiens; details: Homo sapiens, CHP-126
Description: SANGER: Inhibition of human CHP-126 cell growth in a cell viability assay.

ESS-1 = assay: cells; format: functional, cell-based; details: Homo sapiens;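 note: growth inhibition of human ESS-1 cells, read out by a cell viability assay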
Description: SANGER: Inhibition of human ESS-1 cell growth in a cell viability assay.

SK-MM-2 = assay: cells; format: functional, cell-based, Homo sapiens; details: Homo sapiens, SK-MM-2;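 note: growth inhibition of human SK-MM-2 cells, read out with a cell viability assay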
Description: SANGER: Inhibition of human SK-MM-2 cell growth in a cell viability assay.

NCI-H2081 = assay: cells; format: functional, cell-based, Homo sapiens; details: Homo sapiens, NCI-H2081;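 note: growth inhibition of human NCI-H2081 cells, read out with a cell viability assay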
Description: SANGER: Inhibition of human NCI-H2081 cell growth in a cell viability assay.

UMUC3 = assay: cells; format: functional, cell-based; details: Homo sapiens;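 note: growth inhibition of human UM-UC-3 cells, read out with a cell viability assay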
Description: SANGER: Inhibition of human UM-UC-3 cell growth in a cell viability assay.

BXPC-3 = assay: cells; format: functional, cell-based; details: Homo sapiens;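 note: growth inhibition of human BxPC-3 cells, read out by a cell viability assay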
Description: SANGER: Inhibition of human BxPC-3 cell growth in a cell viability assay.

SKG-IIIa = assay: cells; format: functional, cell-based; details: Homo sapiens;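 note: cell growth inhibition, read out with a cell viability assay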
Description: SANGER: Inhibition of human SKG-IIIa cell growth in a cell viability assay.

BEN = assay: cells; format: functional, cell-based; details: Homo sapiens;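 note: growth inhibition of the BEN cell line, read out with a cell viability assay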
Description: SANGER: Inhibition of human BEN cell growth in a cell viability assay.

HuP-T3 = assay: cells; format: functional, cell-based; details: Homo sapiens;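 note: HuP-T3 cell growth inhibition, read out with a cell viability assay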
Description: SANGER: Inhibition of human HuP-T3 cell growth in a cell viability assay.

HuTu80 = assay: cells; format: functional, cell-based, Homo sapiens, HUTU-80; details: Homo sapiens, HuTu80;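 note: growth inhibition of HuTu80 human cells, determined with a cell viability readout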
Description: SANGER: Inhibition of human HUTU-80 cell growth in a cell viability assay.

HOS = assay: cells; format: functional, cell-based; details: Homo sapiens;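 note: growth inhibition of human HOS cells, read out with a cell viability assay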
Description: SANGER: Inhibition of human HOS cell growth in a cell viability assay.

U2OS = assay: cells; format: functional, cell-based, U-2-OS; details: Homo sapiens;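 note: growth inhibition of human U-2-OS cells, determined with a cell viability assay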
Description: SANGER: Inhibition of human U-2-OS cell growth in a cell viability assay.

SW837 = assay: cells; format: functional, cell-based; details: Homo sapiens;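 note: growth inhibition of SW837 cells, determined with a cell viability assay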
Description: SANGER: Inhibition of human SW837 cell growth in a cell viability assay.

CP50-MEL-B = assay: cells; format: functional, cell-based; details: Homo sapiens;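 note: growth inhibition of the human cell line, measured with a cell viability read-out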
Description: SANGER: Inhibition of human CP50-MEL-B cell growth in a cell viability assay.

COR-L23 = assay: cells; format: functional, cell-based; details: Homo sapiens;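 note: cell viability assay measuring how strongly compounds suppress growth of COR-L23 cells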
Description: SANGER: Inhibition of human COR-L23 cell growth in a cell viability assay.

GMS-10 = assay: cells; format: functional, cell-based; details: Homo sapiens;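 note: growth inhibition of GMS-10 cells, read out as cell viability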
Description: SANGER: Inhibition of human GMS-10 cell growth in a cell viability assay.

MRK-nu-1 = assay: cells; format: functional, cell-based, Homo sapiens; details: Homo sapiens, MRK-nu-1;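 note: cell viability assay measuring growth suppression of human MRK-nu-1 cells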
Description: SANGER: Inhibition of human MRK-nu-1 cell growth in a cell viability assay.

A673 = assay: cells; format: functional, cell-based; details: Homo sapiens;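 note: growth inhibition of human A673 cells, read out through a cell viability assay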
Description: SANGER: Inhibition of human A673 cell growth in a cell viability assay.

MFH-ino = assay: cells; format: functional, cell-based, Homo sapiens; details: Homo sapiens, MFH-ino;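 note: growth inhibition of human MFH-ino cells, read out by a cell viability assay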
Description: SANGER: Inhibition of human MFH-ino cell growth in a cell viability assay.

RL95-2 = assay: cells; format: functional, cell-based, Homo sapiens; details: Homo sapiens, RL95-2;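 note: RL95-2 growth inhibition determined through a cell viability readout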
Description: SANGER: Inhibition of human RL95-2 cell growth in a cell viability assay.

SW1088 = assay: cells; format: functional, cell-based; details: Homo sapiens;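 note: growth inhibition of human SW1088 cells, read out by a cell viability assay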
Description: SANGER: Inhibition of human SW1088 cell growth in a cell viability assay.

CAMA-1 = assay: cells; format: functional, cell-based; details: Homo sapiens;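 note: growth inhibition of CAMA-1 cells, read out with a cell viability assay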
Description: SANGER: Inhibition of human CAMA-1 cell growth in a cell viability assay.

T84 = assay: cells; format: functional, cell-based; details: Homo sapiens;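 note: growth inhibition measured with a cell viability readout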
Description: SANGER: Inhibition of human T84 cell growth in a cell viability assay.

NCI-H2452 = assay: cells; format: functional, cell-based; details: Homo sapiens;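 note: growth inhibition of NCI-H2452 cells, read out with a cell viability assay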
Description: SANGER: Inhibition of human NCI-H2452 cell growth in a cell viability assay.

ABC-1 = assay: cells; format: functional, cell-based; details: Homo sapiens
Description: SANGER: Inhibition of human ABC-1 cell growth in a cell viability assay.

5637 = assay: cells; format: functional, cell-based; details: Homo sapiens
Description: SANGER: Inhibition of human 5637 cell growth in a cell viability assay.

Measured: pIC50

O=S(=O)(O)c1ccc2cc(/N=N/c3cc(S(=O)(=O)O)c4cccnc4c3O)ccc2c1
< 4.80: all assays above

From ChEMBL document CHEMBL1201861, “Genomics of Drug Sensitity in Cancer screening data, Wellcome Trust Sanger Institute”
